Consider 27 compounds from US9060515B2, “Heterocyclic urea compounds” (BIOTA EUROPE LTD, priority 2011, dated 2015).

For one assay, the system named is S. aureus (ATCC 29213). The assay is described as follows: Antibacterial susceptibility testing (MIC, broth microdilution or agar dilution), S. aureus. The following applies: Staphylococcus aureus, ATCC29213; read-out: S. aureus (ATCC 29213) minimal inhibitory concentration (MIC). It counts as cell-based. The protocol: (§1) Compounds of the invention were tested for antimicrobial activity by susceptibility testing in liquid or on solid media. MICs for compounds against each strain were determined by the broth microdilution or agar dilution method according to the guidelines of the Clinical Laboratories and Standards Institute, formerly the National Committee for Clinical Laboratory Standards (Clinical Laboratories and Standards Institute. Methods for Dilution Antimicrobial Susceptibility Tests for Bacteria That Grow Aerobically; Approved Standard—Seventh Edition. Document M7-A7. CLSI, Wayne, Pa., 2006; Clinical Laboratories and Standards Institute. The Gram positive bacterial strains tested include S. aureus (Staphylococcus aureus (Isolate ID ATCC 29213)), E. faecalis (Enterococcus faecalis (Isolate ID ATCC 29212)) and S. pyogenes (Streptococcus pyogenes (Isolate ID ATCC 51339)). The Gram negative bacterial strains tested include H. influenzae (Haemophilus influenzae (Isolate ID ATCC 49247)).

The subject of the next assay is S. pyogenes (ATCC 51339). The assay is described as follows: Antibacterial susceptibility testing (MIC, broth microdilution or agar dilution), S. pyogenes. The assay is classed as cell-based. The following applies: Streptococcus pyogenes, ATCC51339; read-out: S. pyogenes (ATCC 51339) minimal inhibitory concentration (MIC). The protocol:
as §1

Values after ≈ are worked out from the molar mass of the structure shown.

As to `CCNC(=O)Nc1cc(Nc2ccccc2)c(C(=O)Nc2ccc(OC)cc2)cn1` [Compound 33, 6-(3-ethylureido)-N-(4-methoxyphenyl)-4-(phenylamino)nicotinamide], the MIC worked out at 4 µg/mL (≈ 9.87 µM) in the assay with S. aureus (ATCC 29213) and 16 µg/mL (≈ 39.5 µM) in the assay with S. pyogenes (ATCC 51339).
The matching figures for `CCNC(=O)Nc1cc(Nc2ccccc2)c(C(=O)Nc2ccc(Cl)cc2)cn1` [Compound 34, N-(4-chlorophenyl)-6-(3-ethylureido)-4-(phenylamino)nicotinamide]: 4 µg/mL (≈ 9.76 µM) and 32 µg/mL (≈ 78.1 µM).
The matching figures for `CCNC(=O)Nc1cc(Nc2ccccc2)c(C(=O)Nc2ccncc2)cn1` [Compound 42, 6-(3-ethylureido)-4-(phenylamino)-N-(pyridin-4-yl)nicotinamide]: not above 1 µg/mL and not above 1 µg/mL.
As to `CCNC(=O)Nc1cc(Nc2ccccc2)c(C(=O)Nc2ccc(C)cc2)cn1` [Compound 46, 6-(3-ethylureido)-4-(phenylamino)-N-p-tolylnicotinamide], the MIC in the assay on S. aureus (ATCC 29213) came out at 2 µg/mL (≈ 5.14 µM); in the assay with S. pyogenes (ATCC 51339) it was 4 µg/mL (≈ 10.3 µM).
The matching figures for `CCNC(=O)Nc1cc(Nc2ccccc2)c(C(=O)Nc2ccc(C(F)(F)F)cc2)cn1` [Compound 47, 6-(3-ethylureido)-4-(phenylamino)-N-(4-(trifluoromethyl)phenyl)nicotinamide]: 4 µg/mL (≈ 9.02 µM) and 32 µg/mL (≈ 72.2 µM).
The matching figures for `CCNC(=O)Nc1cc(Nc2ccccc2)c(C(=O)Nc2cccc(C(F)(F)F)c2)cn1` [Compound 48, 6-(3-ethylureido)-4-(phenylamino)-N-(3-(trifluoromethyl)phenyl)nicotinamide]: not above 1 µg/mL and 8 µg/mL (≈ 18 µM).
Taken in the same sequence, the figures for `CCNC(=O)Nc1cc(Nc2ccccc2)c(C(=O)NCc2ccncc2)cn1` [Compound 51, 6-(3-ethylureido)-4-(phenylamino)-N-(pyridin-4-ylmethyl)nicotinamide] were 32 µg/mL (≈ 82 µM) and 2 µg/mL (≈ 5.12 µM).
Turning to `CCNC(=O)Nc1cc(Nc2ccccc2)c(C(=O)NCc2ccccn2)cn1` [Compound 52, 6-(3-ethylureido)-4-(phenylamino)-N-(pyridin-2-ylmethyl)nicotinamide], the MIC came out at 32 µg/mL (≈ 82 µM) in the assay on S. aureus (ATCC 29213) and 8 µg/mL (≈ 20.5 µM) in the assay on S. pyogenes (ATCC 51339).
Taken in the same sequence, the figures for `CCNC(=O)Nc1cc(Nc2ccccc2)c(C(=O)Nc2ccc(F)cc2)cn1` [Compound 55, 6-(3-ethylureido)-N-(4-fluorophenyl)-4-(phenylamino)nicotinamide] were not above 1 µg/mL and 4 µg/mL (≈ 10.2 µM).
Take `CCNC(=O)Nc1cc(Nc2ccccc2)c(C(=O)Nc2cccc(F)c2)cn1` [Compound 56, 6-(3-ethylureido)-N-(3-fluorophenyl)-4-(phenylamino)nicotinamide]: the MIC with S. aureus (ATCC 29213) is not above 1 µg/mL; in the assay on S. pyogenes (ATCC 51339) it was 2 µg/mL (≈ 5.08 µM).
Taken in the same sequence, the figures for `CCNC(=O)Nc1cc(Nc2ccccc2)c(C(=O)Nc2ccn(C)n2)cn1` [Compound 59, 6-(3-ethylureido)-N-(1-methyl-1H-pyrazol-3-yl)-4-(phenylamino)nicotinamide] were 8 µg/mL (≈ 21.1 µM) and 2 µg/mL (≈ 5.27 µM).
The matching figures for `CCNC(=O)Nc1cc(Nc2ccccc2)c(C(=O)Nc2cncnc2)cn1` [Compound 60, 6-(3-ethylureido)-4-(phenylamino)-N-(pyrimidin-5-yl)nicotinamide]: 4 µg/mL (≈ 10.6 µM) and not above 1 µg/mL.
The matching figures for `CCNC(=O)Nc1cc(Nc2ccccc2)c(C(N)=O)cn1` [Compound 61, 6-(3-Ethylureido)-4-(phenylamino)nicotinamide]: 32 µg/mL (≈ 107 µM) and 16 µg/mL (≈ 53.5 µM).
With `CCNC(=O)Nc1cc(Nc2ccccc2)c(C(=O)Nc2ccc(OC)nc2)cn1` [Compound 63, 6-(3-ethylureido)-N-(6-methoxypyridin-3-yl)-4-(phenylamino)nicotinamide], the MIC in the assay on S. aureus (ATCC 29213) and in the assay on S. pyogenes (ATCC 51339) was not above 1 µg/mL in each case.
As for `CCNC(=O)Nc1cc(Nc2ccccc2)c(C(=O)Nc2cnn(C)c2)cn1` [Compound 65, 6-(3-ethylureido)-N-(1-methyl-1H-pyrazol-4-yl)-4-(phenylamino)nicotinamide], the MIC is 2 µg/mL (≈ 5.27 µM) in the assay on S. aureus (ATCC 29213) and not above 1 µg/mL in the assay on S. pyogenes (ATCC 51339).
Consider `CCNC(=O)Nc1cc(Nc2ccccc2)c(C(=O)Nc2cc(F)cc(F)c2)cn1` [Compound 66, N-(3,5-difluorophenyl)-6-(3-ethylureido)-4-(phenylamino)nicotinamide], for which the MIC is not above 1 µg/mL in the assay with S. aureus (ATCC 29213) and 4 µg/mL (≈ 9.72 µM) in the assay on S. pyogenes (ATCC 51339).
The matching figures for `CCNC(=O)Nc1cc(Nc2ccccc2)c(C(=O)Nc2ccc(F)c(F)c2)cn1` [Compound 69, N-(3,4-difluorophenyl)-6-(3-ethylureido)-4-(phenylamino)nicotinamide]: not above 1 µg/mL and 4 µg/mL (≈ 9.72 µM).
In the case of `CCNC(=O)Nc1cc(Nc2ccccc2)c(C(=O)Nc2ccc3nccn3c2)cn1` [Compound 76, 6-(3-ethylureido)-N-(imidazo[1,2-a]pyridin-6-yl)-4-(phenylamino)nicotinamide], the MIC is 2 µg/mL (≈ 4.81 µM) in the assay with S. aureus (ATCC 29213) and not above 1 µg/mL with S. pyogenes (ATCC 51339).
As for `CCNC(=O)Nc1cc(Nc2ccccc2)c(C(=O)Nc2cncc(OC)c2)cn1` [Compound 79, 6-(3-ethylureido)-N-(5-methoxypyridin-3-yl)-4-(phenylamino)nicotinamide], the MIC in the assay with S. aureus (ATCC 29213) and in the assay with S. pyogenes (ATCC 51339) was not above 1 µg/mL in each case.
Turning to `CCNC(=O)Nc1cc(Nc2ccccc2)c(C(=O)Nc2ccc(C)nc2)cn1` [Compound 81, 6-(3-ethylureido)-N-(6-methylpyridin-3-yl)-4-(phenylamino)nicotinamide], the MIC in the assay on S. aureus (ATCC 29213) and in the assay on S. pyogenes (ATCC 51339) was not above 1 µg/mL in each case.
On to `CCNC(=O)Nc1cc(Nc2ccccc2)c(C(=O)Nc2ccc(Oc3ccc(F)cc3)nc2)cn1` [Compound 82], for which the MIC worked out at 2 µg/mL (≈ 4.11 µM) with S. aureus (ATCC 29213) and 8 µg/mL (≈ 16.4 µM) in the assay with S. pyogenes (ATCC 51339).
Taken in the same sequence, the figures for `CCNC(=O)Nc1cc(Nc2ccccc2)c(C(=O)Nc2cncc(F)c2)cn1` [Compound 85, 6-(3-ethylureido)-N-(5-fluoropyridin-3-yl)-4-(phenylamino)nicotinamide] were not above 1 µg/mL and not above 1 µg/mL.
The matching figures for `CCNC(=O)Nc1cc(Nc2ccccc2)c(C(=O)Nc2cc(C(=O)OC)n(C)c2)cn1` [Compound 86, methyl 4-(6-(3-ethylureido)-4-(phenylamino)nicotinamido)-1-methyl-1H-pyrrole-2-carboxylate]: not above 1 µg/mL and not above 1 µg/mL.
Taken in the same sequence, the figures for `CCNC(=O)Nc1cc(Nc2ccccc2)c(C(=O)Nc2cnc3c(c2)ncn3C)cn1` [Compound 88, 6-(3-ethylureido)-N-(3-methyl-3H-imidazo[4,5-b]pyridin-6-yl)-4-(phenylamino)nicotinamide] were 2 µg/mL (≈ 4.65 µM) and not above 1 µg/mL.
As for `CCNC(=O)Nc1cc(Nc2ccccc2)c(C(=O)Nc2cncc(C(=O)OC)c2)cn1` [Compound 89, methyl 5-(6-(3-ethylureido)-4-(phenylamino)nicotinamido)nicotinate], the MIC in the assay on S. aureus (ATCC 29213) was not above 1 µg/mL; with S. pyogenes (ATCC 51339) it was 8 µg/mL (≈ 18.4 µM).
The matching figures for `CCNC(=O)Nc1cc(Nc2ccccc2)c(C(=O)Nc2cncc(C)c2)cn1` [Compound 91, 6-(3-ethylureido)-N-(5-methylpyridin-3-yl)-4-(phenylamino)nicotinamide]: not above 1 µg/mL and not above 1 µg/mL.
The matching figures for `CCNC(=O)Nc1cc(Nc2ccccc2)c(C(=O)Nc2cc(C)cc(F)c2)cn1` [Compound 93, 6-(3-ethylureido)-N-(3-fluoro-5-methylphenyl)-4-(phenylamino)nicotinamide]: not above 1 µg/mL and 2 µg/mL (≈ 4.91 µM).
